pIC50: −log10 of the molar value.
What was measured:
human orexin-1 receptor = biological target: T1, human orexin-1 receptor (Homo sapiens, UniProt O43613); test: Intracellular calcium measurement (FLIPR Tetra), orexin receptor antagonistic activity, OX1; format: cell-based; conditions: CHO cells expressing human orexin-1 receptor, 3 nM orexin-A, conditions B, normalized (*) using IC50 of on-plate reference compound
T1 construct: expressed in transfected cells; host or cells: CHO (Chinese hamster ovary) cells, kept under G418 selection
T1 sequence (O43613 1-425): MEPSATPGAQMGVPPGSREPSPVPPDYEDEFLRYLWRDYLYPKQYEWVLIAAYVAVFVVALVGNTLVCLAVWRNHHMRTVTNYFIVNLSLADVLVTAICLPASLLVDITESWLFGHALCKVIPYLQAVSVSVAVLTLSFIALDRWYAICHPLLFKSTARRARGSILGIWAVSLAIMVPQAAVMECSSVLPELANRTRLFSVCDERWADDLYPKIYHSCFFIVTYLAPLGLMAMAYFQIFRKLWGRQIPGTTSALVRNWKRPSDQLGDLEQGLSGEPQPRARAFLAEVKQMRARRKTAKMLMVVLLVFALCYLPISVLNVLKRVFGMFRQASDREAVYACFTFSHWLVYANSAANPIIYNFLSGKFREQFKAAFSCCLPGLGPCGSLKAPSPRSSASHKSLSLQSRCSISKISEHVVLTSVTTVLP
In short: (§1)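 Recombinant CHO cells expressing human OX1 or OX2, loaded with fluo-4 AM plus probenecid, were preincubated with antagonist 10 min, then stimulated with 3 nM human orexin-A. Peak fluorescence was compared with vehicle; IC50 derived, sometimes normalized to an on-plate reference compound; two pipetting/cell-splitting conditions were used.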

human orexin-2 receptor = biological target: T2, human orexin-2 receptor (Homo sapiens, UniProt O43614); test: Intracellular calcium measurement (FLIPR Tetra), orexin receptor antagonistic activity, OX2; format: cell-based; conditions: CHO cells expressing human orexin-2 receptor, 3 nM orexin-A, conditions B, normalized (*) using IC50 of on-plate reference compound
T2 construct: expressed in transfected cells; host or cells: CHO (Chinese hamster ovary) cells, kept under G418 selection
T2 sequence (O43614 1-444): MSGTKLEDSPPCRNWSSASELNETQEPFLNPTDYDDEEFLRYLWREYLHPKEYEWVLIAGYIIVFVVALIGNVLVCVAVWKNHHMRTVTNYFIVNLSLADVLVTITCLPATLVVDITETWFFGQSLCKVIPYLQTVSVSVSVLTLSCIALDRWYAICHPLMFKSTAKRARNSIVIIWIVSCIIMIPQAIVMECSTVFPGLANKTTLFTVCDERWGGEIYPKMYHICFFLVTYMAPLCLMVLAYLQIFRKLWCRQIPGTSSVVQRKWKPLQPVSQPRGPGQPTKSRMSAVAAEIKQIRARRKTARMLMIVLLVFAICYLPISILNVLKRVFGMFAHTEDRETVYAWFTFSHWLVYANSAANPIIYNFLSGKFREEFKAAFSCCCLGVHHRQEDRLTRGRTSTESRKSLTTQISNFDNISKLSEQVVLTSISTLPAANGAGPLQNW
In short: as §1

Compound | pIC50 (human orexin-1 receptor) | pIC50 (human orexin-2 receptor)
CNc1nc(C(=O)N(CCc2c[nH]c3ccc(F)cc23)CC2CC2)c(-c2cccc(C)c2)s1 [Example 435, 2-Methylamino-5-m-tolyl-thiazole-4-carboxylic acid cyclopropylmethyl-[2-(5-fluoro-1H-indol-3-yl)-ethyl]amide] | 7.27 | 7.49
COc1ccc(-c2nccnc2C(=O)N(CCc2c[nH]c3c(C)cccc23)CC2CC2)cc1 [Example 436, 3-(4-Methoxy-phenyl)-pyrazine-2-carboxylic acid cyclopropylmethyl-[2-(7-methyl-1H-indol-3-yl)-ethyl]-amide] | 7.62 | 8.70
COc1ccc(-c2nccnc2C(=O)N(CCc2c[nH]c3c(C)cccc23)CC2CC2)cn1 [Example 437, 3-(6-Methoxy-pyridin-3-yl)-pyrazine-2-carboxylic acid cyclopropylmethyl-[2-(7-methyl-1H-indol-3-yl)-ethyl]-amide] | 7.37 | 8.52
Cc1cccc2c(CCN(CC3CC3)C(=O)c3nccnc3-c3cncnc3)c[nH]c12 [Example 438, 3-Pyrimidin-5-yl-pyrazine-2-carboxylic acid cyclopropylmethyl-[2-(7-methyl-1H-indol-3-yl)-ethyl]-amide] | < 4.96 | 7.30
COc1ncc(-c2nccnc2C(=O)N(CCc2c[nH]c3c(C)cccc23)CC2CC2)cn1 [Example 439, 3-(2-Methoxy-pyrimidin-5-yl)-pyrazine-2-carboxylic acid cyclopropylmethyl-[2-(7-methyl-1H-indol-3-yl)-ethyl]-amide] | 6.34 | 7.55
COc1cccc2c(CCN(CC3CC3)C(=O)c3nccnc3-c3cccc(C(F)(F)F)c3)c[nH]c12 [Example 444, 3-(3-Trifluoromethyl-phenyl)-pyrazine-2-carboxylic acid cyclopropylmethyl-[2-(7-methoxy-1H-indol-3-yl)-ethyl]-amide] | 5.22 | 6.67
O=C(c1cncnc1-c1ccccc1)N(CCc1c[nH]c2cc(F)c(Cl)cc12)CC1CC1 [Example 471, 4-Phenyl-pyrimidine-5-carboxylic acid [2-(5-chloro-6-fluoro-1H-indol-3-yl)-ethyl]-cyclopropylmethyl-amide] | 7.01 | 7.60
CN(C)c1nc(C(=O)N(CCc2c[nH]c3cc(F)c(Cl)cc23)CC2CC2)c(-c2ccccc2)s1 [Example 472, 2-Dimethylamino-5-phenyl-thiazole-4-carboxylic acid [2-(5-chloro-6-fluoro-1H-indol-3-yl)-ethyl]-cyclopropylmethyl-amide] | 7.55 | 6.68
COc1ccc2[nH]cc(CCN(CC3CC3)C(=O)c3cnc(C)nc3-c3ccccc3)c2c1C [Example 479, 2-Methyl-4-phenyl-pyrimidine-5-carboxylic acid cyclopropylmethyl-[2-(5-methoxy-4-methyl-1H-indol-3-yl)-ethyl]-amide] | 5.86 | 7.32
O=C(c1cncnc1-c1ccccc1)N(CCc1c[nH]c2ccccc12)CC1CC1 [Example 497, 4-Phenyl-pyrimidine-5-carboxylic acid cyclopropylmethyl-[2-(1H-indol-3-yl)-ethyl]-amide] | 6.64 | 8.00
CCN(C)c1nc(C(=O)N(CCc2c[nH]c3ccccc23)CC2CC2)c(-c2ccccc2F)s1 [Example 500, 2-(Ethyl-methyl-amino)-5-(2-fluoro-phenyl)-thiazole-4-carboxylic acid cyclopropylmethyl-[2-(1H-indol-3-yl)-ethyl]-amide] | 6.59 | 6.72
CCC(=O)Nc1ccc(-c2sc(C)nc2C(=O)N(CCc2c[nH]c3ccccc23)CC2CC2)cc1 [Example 501, 2-Methyl-5-(4-propionylamino-phenyl)-thiazole-4-carboxylic acid cyclopropylmethyl-[2-(1H-indol-3-yl)-ethyl]-amide] | 6.61 | 6.48
Cc1ccc(-c2ncncc2C(=O)N(CCc2c[nH]c3ccccc23)CC2CC2)cc1C [Example 504, 4-(3,4-Dimethyl-phenyl)-pyrimidine-5-carboxylic acid cyclopropylmethyl-[2-(1H-indol-3-yl)-ethyl]-amide] | 7.51 | 7.77
COc1cccc(-c2ncncc2C(=O)N(CCc2c[nH]c3ccccc23)CC2CC2)c1 [Example 506, 4-(3-Methoxy-phenyl)-pyrimidine-5-carboxylic acid cyclopropylmethyl-[2-(1H-indol-3-yl)-ethyl]-amide] | 6.59 | 7.82
O=C(c1cncnc1-c1cccc(F)c1)N(CCc1c[nH]c2ccccc12)CC1CC1 [Example 510, 4-(3-Fluoro-phenyl)-pyrimidine-5-carboxylic acid cyclopropylmethyl-[2-(1H-indol-3-yl)-ethyl]-amide] | 6.45 | 7.60
O=C(c1cncnc1-c1ccc(Br)c(Cl)c1)N(CCc1c[nH]c2ccccc12)CC1CC1 [Example 513, 4-(4-Bromo-3-chloro-phenyl)-pyrimidine-5-carboxylic acid cyclopropylmethyl-[2-(1H-indol-3-yl)-ethyl]-amide] | 7.44 | 7.77
CCN(CCc1c[nH]c2ccccc12)C(=O)c1nccnc1-c1cccc(OC)c1 [Example 533, 3-(3-Methoxy-phenyl)-pyrazine-2-carboxylic acid ethyl-[2-(1H-indol-3-yl)-ethyl]-amide] | 5.63 | 6.59
CCN(CCc1c[nH]c2ccccc12)C(=O)c1cncnc1-c1ccc(Br)c(Cl)c1 [Example 536, 4-(4-Bromo-3-chloro-phenyl)-pyrimidine-5-carboxylic acid ethyl-[2-(1H-indol-3-yl)-ethyl]-amide] | 6.58 | 8.05
CCN(CCc1c[nH]c2ccccc12)C(=O)c1cncnc1-c1cccc(OC)c1 [Example 541, 4-(3-Methoxy-phenyl)-pyrimidine-5-carboxylic acid ethyl-[2-(1H-indol-3-yl)-ethyl]-amide] | 5.53 | 6.82
CCN(CCc1c[nH]c2ccccc12)C(=O)c1cncnc1-c1ccc(Cl)c(Cl)c1 [Example 544, 4-(3,4-Dichloro-phenyl)-pyrimidine-5-carboxylic acid ethyl-[2-(1H-indol-3-yl)-ethyl]-amide] | 6.75 | 7.82
Cc1cccc(-c2ncncc2C(=O)N(CCc2c[nH]c3ccccc23)CC(F)(F)F)c1 [Example 549, 4-m-Tolyl-pyrimidine-5-carboxylic acid [2-(1H-indol-3-yl)-ethyl]-(2,2,2-trifluoro-ethyl)-amide] | 5.94 | 6.89
Cc1cc(F)cc(-c2nccnc2C(=O)N(CCc2c[nH]c3ccccc23)CC(F)(F)F)c1 [Example 556, 3-(3-Fluoro-5-methyl-phenyl)-pyrazine-2-carboxylic acid [2-(1H-indol-3-yl)-ethyl]-(2,2,2-trifluoro-ethyl)-amide] | 6.37 | 6.67
COCCOc1cccc(-c2sc(C)nc2C(=O)N(CCc2c[nH]c3ccccc23)CC(=O)OC)c1 [Example 587, ([2-(1H-Indol-3-yl)-ethyl]-{5-[3-(2-methoxy-ethoxy)-phenyl]-2-methyl-thiazole-4-carbonyl}-amino)-acetic acid methyl ester] | 6.39 | 7.42
COC(=O)CN(CCc1c[nH]c2ccccc12)C(=O)c1nc(C)sc1-c1cccc(Br)c1 [Example 590, {[5-(3-Bromo-phenyl)-2-methyl-thiazole-4-carbonyl]-[2-(1H-indol-3-yl)-ethyl]-amino}-acetic acid methyl ester] | 6.33 | 8.00
COC(=O)CN(CCc1c[nH]c2ccc(F)cc12)C(=O)c1cnc(C)nc1-c1ccc(Cl)c(Cl)c1 [Example 604, {[4-(3,4-Dichloro-phenyl)-2-methyl-pyrimidine-5-carbonyl]-[2-(5-fluoro-1H-indol-3-yl)-ethyl]-amino}-acetic acid methyl ester] | 6.38 | 6.71
Cc1cccc(-c2oc(C3CC3)nc2C(=O)N(CCc2c[nH]c3ccccc23)CC2CC2)c1 [Example 607, 2-Cyclopropyl-5-m-tolyl-oxazole-4-carboxylic acid cyclopropylmethyl-[2-(1H-indol-3-yl)-ethyl]-amide] | 6.42 | 7.46

Source: patent publication US20110212968A1, “PHENETHYLAMIDE DERIVATIVES AND THEIR HETEROCYCLIC ANALOGUES” (priority 2008, published 2011)
